These results are taken from the supplement of paper PMC11368000.

In the first experiment the test system is 20084 (donor line of iPSC-derived cardiomyocytes). The experiment in a line: POD (EC05) for decrease in beat frequency (negative chronotrope) vs vehicle; higher = less potent (higher point of departure). The conditions noted are these: exposure time: 90 min. In a few lines: (§1)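 Ca2+ flux in human iPSC-derived cardiomyocytes from 16 donors was recorded on a FLIPR Tetra for 100 s before and after a 90 min exposure at 37 °C to 0.1, 1, 10 and 100 µM (final, 0.5% DMSO). Donor-specific points of departure came from hierarchical Bayesian Hill fits to vehicle-normalised beat frequency, decay-to-rise ratio or peak frequency. A 5% change served as threshold, except for peak frequency, where it was a 95% loss.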
As to `NC(=O)C(F)(F)C(F)(F)C(F)(F)F` [Heptafluorobutyramide], the POD vs vehicle was over 100 µM.

Compound `OCC(F)(F)C(F)(F)C(F)(F)CO` [Hexafluoroamylene_glycol] gave a POD vs vehicle of over 100 µM.

`COC(=O)C(F)(F)C(F)(F)OC(F)(C(F)(F)F)C(F)(F)OC(F)=C(F)F` (stereo not drawn) [Methyl_perfluoro(3-(1-ethenyloxypropan-2-yloxy)propanoate)] returned a POD vs vehicle of over 100 µM.

As to `NC(=O)C(F)(F)C(F)(F)C(F)(F)C(F)(F)F` [Nonafluoropentanamide], the POD vs vehicle was over 100 µM.

Turning to `NC(=O)C(F)(F)C(F)(F)C(F)(F)C(F)(F)C(N)=O` [Octafluoroadipamide], the POD vs vehicle was over 100 µM.

`O=C(O)C(F)(F)C(F)(F)C(F)(F)C(F)(F)C(=O)O` [Octafluoroadipic_acid] had a POD vs vehicle of over 100 µM.

Compound `O=C(O)C(F)(F)C(F)(F)C(F)(F)OC(F)(F)F` [Perfluoro(4-methoxybutanoic)_acid] showed a POD vs vehicle of over 100 µM.

`O=C(O)C(F)(F)OC(F)(F)C(F)(F)OC(F)(F)C(F)(F)OC(F)(F)C(F)(F)C(F)(F)C(F)(F)F` [Perfluoro-3,6,9-trioxatridecanoic_acid] returned a POD vs vehicle of 77.9 µM.

For the compound `O=C(O)C(F)(F)OC(F)(F)C(F)(F)OC(F)(F)F` [Perfluoro-3,6-dioxaheptanoic_acid], the POD vs vehicle is over 100 µM.

In turn, `O=C(O)C(F)(F)OC(F)(F)C(F)(F)OC(F)(F)C(=O)O` [Perfluoro-3,6-dioxaoctane-1,8-dioic_acid] gave a POD vs vehicle of over 100 µM.

The subject of another experiment is 1309 (donor line of iPSC-derived cardiomyocytes). Described as above. The conditions noted are these: exposure time: 90 min. In a few lines:
as §1
`OCC(F)(F)C(F)(F)C(F)(F)C(F)(F)C(F)(F)C(F)(F)F` [6:1 Fluorotelomer alcohol]: the POD vs vehicle is over 100 µM.

On to `OCCC(F)(F)C(F)(F)C(F)(F)C(F)(F)C(F)(F)C(F)(F)F` [6:2 Fluorotelomer alcohol], for which the POD vs vehicle is over 100 µM.

Compound `O=S(=O)(O)CCC(F)(F)C(F)(F)C(F)(F)C(F)(F)C(F)(F)C(F)(F)F` [6:2 Fluorotelomer sulfonic acid] returned a POD vs vehicle of over 100 µM.

The compound `OCCC(F)(F)C(F)(F)C(F)(F)C(F)(F)C(F)(F)C(F)(F)C(F)(F)C(F)(F)F` [8:2 Fluorotelomer alcohol] had a POD vs vehicle of over 100 µM.

Compound `O=S(=O)(O)CCC(F)(F)C(F)(F)C(F)(F)C(F)(F)C(F)(F)C(F)(F)C(F)(F)C(F)(F)F` [8:2 Fluorotelomer sulfonic acid] yielded a POD vs vehicle of 33.9 µM.

Turning to `O=C(O)C(F)(F)C(F)(F)C(F)(F)C(F)(F)C(F)(F)C(F)(F)C(F)(F)C(F)(F)Cl` [9-Chloro-perfluorononanoic_acid], the POD vs vehicle was 84.3 µM.

In the case of `O=P(O)(O)CCC(F)(F)C(F)(F)C(F)(F)C(F)(F)C(F)(F)C(F)(F)C(F)(F)C(F)(F)F` [((Perfluorooctyl)ethyl)phosphonic_acid], the POD vs vehicle was over 100 µM.

Take `OCC(F)(F)C(F)(F)C(F)(F)C(F)(F)C(F)(F)C(F)F` [Dodecafluoroheptanol]: the POD vs vehicle came out at 19.4 µM.

As for `OCC(F)(F)C(F)(F)C(F)(F)F` [Heptafluorobutanol], the POD vs vehicle was over 100 µM.

With `NC(=O)C(F)(F)C(F)(F)C(F)(F)F` [Heptafluorobutyramide], the POD vs vehicle is over 100 µM.

As to `OCC(F)(F)C(F)(F)C(F)(F)CO` [Hexafluoroamylene_glycol], the POD vs vehicle is over 100 µM.

With `COC(=O)C(F)(F)C(F)(F)OC(F)(C(F)(F)F)C(F)(F)OC(F)=C(F)F` (stereo not drawn) [Methyl_perfluoro(3-(1-ethenyloxypropan-2-yloxy)propanoate)], the POD vs vehicle was over 100 µM.

Compound `NC(=O)C(F)(F)C(F)(F)C(F)(F)C(F)(F)F` [Nonafluoropentanamide] registered a POD vs vehicle of over 100 µM.

`NC(=O)C(F)(F)C(F)(F)C(F)(F)C(F)(F)C(N)=O` [Octafluoroadipamide] yielded a POD vs vehicle of over 100 µM.

Compound `O=C(O)C(F)(F)C(F)(F)C(F)(F)C(F)(F)C(=O)O` [Octafluoroadipic_acid] displayed a POD vs vehicle of over 100 µM.

For `O=C(O)C(F)(F)C(F)(F)C(F)(F)OC(F)(F)F` [Perfluoro(4-methoxybutanoic)_acid], the POD vs vehicle was over 100 µM.

With `O=C(O)C(F)(F)OC(F)(F)C(F)(F)OC(F)(F)C(F)(F)OC(F)(F)C(F)(F)C(F)(F)C(F)(F)F` [Perfluoro-3,6,9-trioxatridecanoic_acid], the POD vs vehicle is over 100 µM.

In turn, `O=C(O)C(F)(F)OC(F)(F)C(F)(F)OC(F)(F)F` [Perfluoro-3,6-dioxaheptanoic_acid] came in with a POD vs vehicle of over 100 µM.

In turn, `O=C(O)C(F)(F)OC(F)(F)C(F)(F)OC(F)(F)C(=O)O` [Perfluoro-3,6-dioxaoctane-1,8-dioic_acid] showed a POD vs vehicle of over 100 µM.

The subject of the next experiment is 1434 (donor line of iPSC-derived cardiomyocytes). The description is as above. To be noted: exposure time: 90 min. The method in brief:
as §1
Compound `OCC(F)(F)C(F)(F)C(F)(F)C(F)(F)C(F)(F)C(F)(F)F` [6:1 Fluorotelomer alcohol] yielded a POD vs vehicle of 21.9 µM.

With `OCCC(F)(F)C(F)(F)C(F)(F)C(F)(F)C(F)(F)C(F)(F)F` [6:2 Fluorotelomer alcohol], the POD vs vehicle was over 100 µM.

As to `O=S(=O)(O)CCC(F)(F)C(F)(F)C(F)(F)C(F)(F)C(F)(F)C(F)(F)F` [6:2 Fluorotelomer sulfonic acid], the POD vs vehicle was over 100 µM.

The compound `OCCC(F)(F)C(F)(F)C(F)(F)C(F)(F)C(F)(F)C(F)(F)C(F)(F)C(F)(F)F` [8:2 Fluorotelomer alcohol] returned a POD vs vehicle of over 100 µM.

Compound `O=S(=O)(O)CCC(F)(F)C(F)(F)C(F)(F)C(F)(F)C(F)(F)C(F)(F)C(F)(F)C(F)(F)F` [8:2 Fluorotelomer sulfonic acid] came in with a POD vs vehicle of 12.8 µM.

Turning to `O=C(O)C(F)(F)C(F)(F)C(F)(F)C(F)(F)C(F)(F)C(F)(F)C(F)(F)C(F)(F)Cl` [9-Chloro-perfluorononanoic_acid], the POD vs vehicle amounted to 10.9 µM.

Turning to `O=P(O)(O)CCC(F)(F)C(F)(F)C(F)(F)C(F)(F)C(F)(F)C(F)(F)C(F)(F)C(F)(F)F` [((Perfluorooctyl)ethyl)phosphonic_acid], the POD vs vehicle is over 100 µM.

In turn, `OCC(F)(F)C(F)(F)C(F)(F)C(F)(F)C(F)(F)C(F)F` [Dodecafluoroheptanol] came in with a POD vs vehicle of 18.1 µM.

Compound `OCC(F)(F)C(F)(F)C(F)(F)F` [Heptafluorobutanol] had a POD vs vehicle of over 100 µM.

Compound `NC(=O)C(F)(F)C(F)(F)C(F)(F)F` [Heptafluorobutyramide] came in with a POD vs vehicle of over 100 µM.

Regarding `OCC(F)(F)C(F)(F)C(F)(F)CO` [Hexafluoroamylene_glycol], the POD vs vehicle is over 100 µM.

`COC(=O)C(F)(F)C(F)(F)OC(F)(C(F)(F)F)C(F)(F)OC(F)=C(F)F` (stereo not drawn) [Methyl_perfluoro(3-(1-ethenyloxypropan-2-yloxy)propanoate)] displayed a POD vs vehicle of over 100 µM.

As to `NC(=O)C(F)(F)C(F)(F)C(F)(F)C(F)(F)F` [Nonafluoropentanamide], the POD vs vehicle was over 100 µM.

`NC(=O)C(F)(F)C(F)(F)C(F)(F)C(F)(F)C(N)=O` [Octafluoroadipamide]: the POD vs vehicle is over 100 µM.

Regarding `O=C(O)C(F)(F)C(F)(F)C(F)(F)C(F)(F)C(=O)O` [Octafluoroadipic_acid], the POD vs vehicle was over 100 µM.

`O=C(O)C(F)(F)C(F)(F)C(F)(F)OC(F)(F)F` [Perfluoro(4-methoxybutanoic)_acid] had a POD vs vehicle of over 100 µM.

Regarding `O=C(O)C(F)(F)OC(F)(F)C(F)(F)OC(F)(F)C(F)(F)OC(F)(F)C(F)(F)C(F)(F)C(F)(F)F` [Perfluoro-3,6,9-trioxatridecanoic_acid], the POD vs vehicle worked out at 22.8 µM.

In turn, `O=C(O)C(F)(F)OC(F)(F)C(F)(F)OC(F)(F)F` [Perfluoro-3,6-dioxaheptanoic_acid] registered a POD vs vehicle of over 100 µM.

`O=C(O)C(F)(F)OC(F)(F)C(F)(F)OC(F)(F)C(=O)O` [Perfluoro-3,6-dioxaoctane-1,8-dioic_acid] returned a POD vs vehicle of over 100 µM.
